The results in this text go back to ChEMBL document CHEMBL6182920, “The Discovery of C7-Substituted Norbornyl Bisamides as RXFP1 Small Molecule Agonists” (J Med Chem, 2025).

Converted amounts (≈) assume the structure as drawn.

In data set [1] the target is T1, Relaxin receptor 1 (Mus musculus, UniProt Q6R6I7).
T1 sequence (Q6R6I7 whole entry): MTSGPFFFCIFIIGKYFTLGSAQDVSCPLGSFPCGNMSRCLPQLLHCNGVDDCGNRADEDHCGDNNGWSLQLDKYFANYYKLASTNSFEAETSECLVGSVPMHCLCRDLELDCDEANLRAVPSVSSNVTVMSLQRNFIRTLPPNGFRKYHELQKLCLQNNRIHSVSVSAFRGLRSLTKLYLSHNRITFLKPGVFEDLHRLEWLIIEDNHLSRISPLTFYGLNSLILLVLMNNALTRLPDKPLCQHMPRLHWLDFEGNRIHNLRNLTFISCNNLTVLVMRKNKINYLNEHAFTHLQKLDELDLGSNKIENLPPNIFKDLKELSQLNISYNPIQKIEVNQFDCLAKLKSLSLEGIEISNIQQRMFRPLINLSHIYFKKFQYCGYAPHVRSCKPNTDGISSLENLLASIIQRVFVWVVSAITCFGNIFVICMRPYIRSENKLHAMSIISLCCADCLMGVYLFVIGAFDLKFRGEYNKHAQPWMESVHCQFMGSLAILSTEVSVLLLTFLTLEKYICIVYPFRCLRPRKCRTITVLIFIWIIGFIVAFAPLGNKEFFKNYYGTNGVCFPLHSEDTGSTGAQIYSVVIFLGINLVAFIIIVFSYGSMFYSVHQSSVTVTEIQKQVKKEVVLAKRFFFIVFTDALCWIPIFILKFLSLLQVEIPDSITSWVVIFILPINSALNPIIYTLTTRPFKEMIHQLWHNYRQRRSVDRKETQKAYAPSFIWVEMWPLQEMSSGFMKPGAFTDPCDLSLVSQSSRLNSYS
The data set is described as follows: Agonist activity at mouse RXFP1 stably expressed in HEK293 cells assessed as intracellular cAMP accumulation incubated for 30 mins by HTRF assay. The data set is classed as functional, cell-based. For orientation: Changes in cAMP serve as a functional read-out for many G protein-coupled receptors.

In data set [2] the target is T2, Relaxin receptor 1 (Homo sapiens, UniProt Q9HBX9).
T2 sequence (Q9HBX9 whole entry): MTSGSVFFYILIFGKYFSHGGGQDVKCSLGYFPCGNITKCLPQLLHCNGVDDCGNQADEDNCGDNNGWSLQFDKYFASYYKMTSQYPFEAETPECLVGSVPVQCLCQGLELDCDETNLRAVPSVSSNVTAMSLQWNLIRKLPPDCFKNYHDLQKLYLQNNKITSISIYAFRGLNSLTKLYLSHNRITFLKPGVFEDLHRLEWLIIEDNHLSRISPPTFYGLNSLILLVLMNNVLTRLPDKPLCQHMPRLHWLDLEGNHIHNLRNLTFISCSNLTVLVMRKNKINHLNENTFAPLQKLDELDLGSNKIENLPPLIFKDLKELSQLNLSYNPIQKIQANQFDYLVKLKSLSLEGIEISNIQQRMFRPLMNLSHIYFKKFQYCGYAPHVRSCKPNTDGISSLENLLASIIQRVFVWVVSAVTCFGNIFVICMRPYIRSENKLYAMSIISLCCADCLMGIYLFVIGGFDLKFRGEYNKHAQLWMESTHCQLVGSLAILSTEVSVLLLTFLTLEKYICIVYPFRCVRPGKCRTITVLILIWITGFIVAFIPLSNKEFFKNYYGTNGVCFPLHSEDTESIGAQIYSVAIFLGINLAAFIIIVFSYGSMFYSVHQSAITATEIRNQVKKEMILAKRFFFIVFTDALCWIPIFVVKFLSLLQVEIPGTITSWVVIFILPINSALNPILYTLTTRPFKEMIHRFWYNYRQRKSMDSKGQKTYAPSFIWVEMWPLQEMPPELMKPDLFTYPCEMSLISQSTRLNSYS
Put plainly: Agonist activity at human RXFP1 stably expressed in HEK293 cells assessed as intracellular cAMP accumulation incubated for 30 mins by HTRF assay.

Data set [3] has as its target T1, Relaxin receptor 1. The data set is described as follows: Partial agonist activity at mouse RXFP1 expressed in HEK293 cells assessed as intracellular cAMP accumulation incubated for 30 mins by HTRF assay. Type of data set: functional, cell-based.
Data set [4] has as its target T3, Relaxin receptor 1 (Rattus norvegicus, UniProt Q6R6I6).
T3 sequence (Q6R6I6 whole entry): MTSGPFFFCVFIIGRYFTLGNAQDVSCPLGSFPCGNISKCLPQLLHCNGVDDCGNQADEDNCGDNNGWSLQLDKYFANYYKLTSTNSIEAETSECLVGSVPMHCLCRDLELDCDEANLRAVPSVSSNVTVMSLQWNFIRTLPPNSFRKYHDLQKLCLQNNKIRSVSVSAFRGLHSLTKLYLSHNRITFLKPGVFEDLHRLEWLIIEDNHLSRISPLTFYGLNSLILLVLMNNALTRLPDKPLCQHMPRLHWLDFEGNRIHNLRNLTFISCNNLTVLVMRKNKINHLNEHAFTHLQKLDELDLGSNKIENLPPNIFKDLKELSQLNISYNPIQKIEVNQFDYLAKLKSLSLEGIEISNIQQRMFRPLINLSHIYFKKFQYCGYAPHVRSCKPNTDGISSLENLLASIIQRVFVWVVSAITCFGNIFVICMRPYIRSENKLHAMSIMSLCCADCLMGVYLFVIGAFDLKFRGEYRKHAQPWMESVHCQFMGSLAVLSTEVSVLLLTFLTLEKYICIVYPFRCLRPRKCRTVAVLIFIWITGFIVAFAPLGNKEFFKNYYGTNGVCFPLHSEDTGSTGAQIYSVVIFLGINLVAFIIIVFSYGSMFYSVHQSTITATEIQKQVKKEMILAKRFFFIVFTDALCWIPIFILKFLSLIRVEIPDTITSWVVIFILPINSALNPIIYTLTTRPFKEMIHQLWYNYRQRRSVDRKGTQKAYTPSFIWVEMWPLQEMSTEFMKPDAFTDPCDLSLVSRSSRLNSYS
The data set is described as follows: Agonist activity at rat RXFP1 stably expressed in HEK293 cells assessed as intracellular cAMP accumulation incubated for 30 mins by HTRF assay. Type of data set: cell-based.

Data set [5] can be described thus: Thermodynamic aqueous solubility of compound in phosphate buffer at pH 7.4 by reversed-phase ultrahigh pressure liquid chromatography. Type of data set: physicochemical. The following applies: phosphate buffer, read-out: Therm_solubility.
Data set [6] can be described thus: Microsomal stability in rat liver microsomes assessed as compound remaining measured after 30 mins. Type of data set: ADME, Microsome. The following applies: read-out: Stability. (Microsomes from liver hold many membrane-bound enzymes, among them those of drug oxidation.)
Data set [7] is described as follows: Microsomal stability in human liver microsomes assessed as compound remaining measured after 30 mins. Type of data set: ADME, Microsome. Conditions: read-out: Stability.
Data set [8] in a line: Microsomal stability in mouse liver microsomes assessed as compound remaining measured after 30 mins. The data set is classed as ADME, Microsome. Conditions: read-out: Stability.
Data set [9] has as its system Rattus norvegicus. Put plainly: Chronotropic effect in iv dosed isoflurane-anesthetized male naive Sprague-Dawley rat model assessed as increase in heart rate measured after 60 mins. Type of data set: functional, organism-based. Conditions: dose lower […], dose upper 5.0 mg/kg/min.
Data set [10] relates to Rattus norvegicus. The data set is described as follows: Chronotropic effect in isoflurane-anesthetized male naive Sprague-Dawley rat model assessed as effect on heart rate at 0.5 mg/kg/min, iv measured after 60 mins. Type of data set: functional, organism-based.
The target of data set [11] is T2, Relaxin receptor 1. The data set is described as follows: Agonist activity at human RXFP1.
A short description of data set [12]: Oral bioavailability in CD-1 mouse at 10 mg/kg. The data set is classed as ADME, organism-based. Conditions: in vivo.

Consider `COc1ccc(-c2ccc(C(=O)O)cc2)cc1C(=O)N[C@H]1[C@@H](C(=O)Nc2ccc(F)c(C(F)(F)F)c2)[C@H]2CC[C@@H]1C2=C(C)C`, for which the EC50 (in general, the concentration needed to bring the measured effect to its halfway point) came to 2.3 µM on Relaxin receptor 1 [1], 0.38 µM at Relaxin receptor 1 [2] and 2.3 µM at Relaxin receptor 1 [3].
In the case of `COc1ccc(-c2cc(C(O)C(=O)O)ccc2F)cc1C(=O)N[C@H]1[C@@H](C(=O)Nc2ccc(F)c(C(F)(F)F)c2)[C@H]2CC[C@@H]1/C2=C\c1cnoc1` (stereo partly drawn), the EC50 at Relaxin receptor 1 [1] stood at 1.1 µM; on Relaxin receptor 1 [2], 0.013 µM; on Relaxin receptor 1 [4], 1.1 µM. Further, the solubility thermodynamic in data set [5] is 60 µg/mL (≈ 86 µM). The remaining at 0.5 h in data set [6], in data set [7] and in [8] was greater than 90% each time.
For `CNC(=O)OC(C(=O)O)c1ccc(F)c(-c2ccc(OC)c(C(=O)N[C@H]3[C@@H](C(=O)Nc4ccc(F)c(C(F)(F)F)c4)[C@H]4CC[C@@H]3/C4=C\C3CC3)c2)c1` (stereo in doubt; 39), the results for the Activity entry in the data set with Rattus norvegicus [9] and in the data set with Rattus norvegicus [10] were “Dose-dependent-effect” and “No effect”, respectively.
At Relaxin receptor 1 [11], `COc1cc(F)c(F)cc1C(=O)Nc1ccccc1C(=O)Nc1ccc(F)c(C(F)(F)F)c1` gave an EC50 of 1.2 µM.
Consider `COc1ccc(-c2cncn2C)cc1C(=O)N[C@H]1[C@@H](C(=O)Nc2ccc(F)c(C(F)(F)F)c2)[C@H]2CC[C@@H]1C2=C(C)C`, for which the EC50 on Relaxin receptor 1 [1] is greater than 10 µM. Also, the bioavailability (commonly dose-corrected exposure relative to a reference, in per cent) in data set [12] stood at 29%.
With `COc1ccc(-c2cc(C(=O)O)ccc2F)cc1C(=O)N[C@H]1[C@@H](C(=O)Nc2ccc(F)c(C(F)(F)F)c2)[C@H]2CC[C@@H]1/C2=C\C(F)(F)F`, the EC50 at Relaxin receptor 1 [1] and on Relaxin receptor 1 [3] was 0.5 µM each time. Further, the remaining at 0.5 h in [6], in [7] and in data set [8] was greater than 90% in each case. In addition, the bioavailability in data set [12] was determined as 36%.
`COc1ccc(-c2cc(C(=O)O)ccc2F)cc1C(=O)N[C@H]1[C@@H](C(=O)Nc2ccc(F)c(C(F)(F)F)c2)[C@H]2CC[C@@H]1/C2=C\c1cnoc1`: the EC50 at Relaxin receptor 1 [1] was 0.58 µM; at Relaxin receptor 1 [4], 0.88 µM; on Relaxin receptor 1 [3] it was 0.58 µM. For the same compound, the solubility thermodynamic in data set [5] was 15 µg/mL (≈ 22.5 µM). Besides, the remaining at 0.5 h in data set [6], in data set [7] and in data set [8] was greater than 90% throughout.
